These results are taken from patent US20090016989A1, “ANTIBODIES TO HUMAN SOMATOSTATIN RECEPTOR AND METHODS OF USE” (priority 2007, published 2009).

Common to all, as to type: cell-based, human
The subject of assay [1] is sh-hSSTR subtype 5-BON cells. The assay is described as follows: Growth in tetracycline-controlled shRNA knock-down cells. The conditions noted are these: FIG. 5.
Source text: To validate that cell growth inhibition is caused by the anti-hSSTR antibody in a subtype specific manner, BON cells were stably transfected with plasmids carrying short hairpin RNA shSSTR subtype 2 or shSSTR subtype 5 in which the expression of the shRNAs were under the control of tetracycline. Sh-hSSTR subtype 2 and sh-hSSTR subtype 5 destabilize the target receptor's messenger RNA and, consequently, knock down the expression of the target gene.
The test system of assay [2] is BON cells. The assay is described as follows: Guava Nexin apoptosis assay (Annexin V / 7-AAD). The following applies: 10 μg/ml rabbit IgG or antibodies, 100 nM octreotide, % of Total. As to the method: Cells were then switched to growth media without FBS and allowed to grow for another 24 hours before applying treatments. Samples were collected and counted in accordance with Guava Technologies' Viacount Flex (Cat#4500-0110) instructions. At the end of each antibody treatment, cells were dissociated from the plate using 1× trypsin-EDTA (Invitrogen Cat#2520). […] Next, phosphate buffer solution (D-PBS) (Invitrogen Cat#14190-144) (Invitrogen) was used as the exchange buffer to resuspend the cell pellet. […] Detection was achieved by using Guava PCA96 instrument and data was analysed by using Guava Nexin software module as (Cat#0500-0250). […] Following the protocol for the Guava Nexin™ assay (Guava Technologies), two different dyes were used to stain for cells undergoing apoptosis: 7-AAD stains for dead and late apoptosis cells (upper right quadrant of each graph in FIG. 10), and Annexin V stains for cells undergoing apoptosis from the early stage (lower right quadrant of each graph in FIG. 10). […] Once every 24 hours for 72 hours (FIGS. 10B, 10C and 10D), cells were collected and tested for apoptosis status using the Guava Nexin™ assay (Guava Technologies).

Assay [3] relates to BON cells. Kind of assay: Cell cycle progression, propidium iodide flow cytometry. The following applies: 48 hours, 5 μg/ml antibodies or rabbit IgG, 100 nM octreotide, FIG. 12. As to the method: Propidium iodide dye was used in flow cytometry (Guava Cell Cycle Reagent Cat #4500-0220) to stain DNA and detect cell cycle progression in BON cells. Treatment conditions for the experiment were as follows: (i) D-PBS; (ii) 5 μg/ml rabbit IgG; (iii) 5 μg/ml anti-hSSTR subtype 2 antibodies; […] Treatments, as described above, were added to the cells once every 24 hours for a total of 48 hours. At the end of each treatment, cells were dissociated from the plate using 2 ml 1× trypsin-EDTA (Invitrogen Cat#2520). […] Next, phosphate buffer solution (D-PBS) (Invitrogen Cat#14190-144) was used as the exchange buffer and 15 ml Falcon tubes with samples were spun at 900 rpm using a table top centrifuge (Beckman Coulter). After centrifugation, supernatant was discarded and cell pellet was resuspended in 10 ml of PBS and this was repeated two times. […] Guava Cell Cycle Reagent (Guava Technologies, Cat#4500-0220) was used for detection by using the Guava PCA96 instrument. Cell Cycle data was analyzed by using Guava Cell Cycle module (Guava Technologies, Cat# 0500-0480). For further detail, please see Guava Cell Cycle Reagent protocol (Guava Technologies).
In general terms: In flow cytometry, cells or beads pass a laser one at a time.

Another assay concerns QGP cells. Kind of assay: MTS growth assay in pancreatic islet carcinoma cells. The conditions noted are these: antibodies 5 μg/ml every 24 hours, octreotide 100 nM every 24 hour, FIG. 15. The procedure: The QGP cells were maintained in F12 HAM (Invitrogen, Cat#31765035)/D-MEM (Invitrogen, Cat#10567-014) (50/50) in 10% certified fetal bovine serum (FBS) (Invitrogen, Cat#16000-044) in 10-cm tissue culture plates (BD Biosciences, Cat#353003). QGP cells were first seeded at a density of 5000 cells/well in QGP cell growth media and grown in 96-well cell culture plates (Costar, Cat#3590) and allowed to attach and grow in 100 μl cell growth media. […] QGP cells constitutively make their own somatostatin. This negative growth autocrine loop was tested by adding 10 μg/ml neutralizing anti-SST antibody (SST antibody, right hand Y-axis of FIG. 15) once every 24 hours, and a significant growth rescue (29%) was observed. […] CellTiter 96® Aqueous One Solution Cell Proliferation Assay (MTS) (Promega, Cat#G3581), was used as described above to measure the growth doubling time for all QGP cells. Daily data collected was used to calculate the doubling time in hours. QGP cell growth increase or decrease as a result of each treatment is presented as a percent change along the x-axis in FIG. 15. The percent change for QGP cells in each treatment was derived by normalizing treated cells against untreated cells (as % of change in growth) in growth doubling time.
On the technique in general: Tetrazolium dyes change colour on reduction, which living cells bring about.

For assay [4], the system named is BON cells. Kind of assay: Cell number after 48-hour treatment (Viacount). The conditions noted are these: after 2 days of daily treatment, 5 μg/ml antibody or rabbit IgG, 100 nM octreotide. The procedure: A serotonin ([…]) assay was performed using Serotonin EIA (Biosource, Cat# KAPL10-0900) to measure serotonin release by BON cells over a 48-hour period with or without treatment. […] After 24 hours, the BON cells were subjected to six different daily treatments (at maximum dosages) and grown in FBS-free cell growth media for 2 days in a sterile tissue culture chamber at 37° C. with 6% CO2. These six treatments were: […] The anti-hSSTR Abs (4)-(6) were antibodies produced in the experiment described in Example 1. At the end of each treatment, 1× Halt Protease Inhibitor cocktail (Pierce, Cat# 78415) was immediately added to each sample and the media was collected from each sample and used for Serotonin detection. Next, cells were dissociated from the plate using 2 ml of 1× trypsin-EDTA (Invitrogen Cat#2520) in cell growth media and incubated at 37° C. with 6% CO2 for 5 minutes. Subsequently, an additional 8 ml of cell growth media was added to neutralize trypsin-EDTA, and subjected to 1000 rpm at 4° C. in 15 ml Falcon tubes using Beckman table top centrifuge. Guava Technologies PCA-96 instrument (tabletop flow cytometer) and Viacount flex reagent (Guava Technologies, Cat# 4500-0100) were then used to determine the number of cells for the abovementioned treatments. The results were as follows: […]

Assay [5] deals with BON cells. Kind of assay: Guava Nexin apoptosis assay (Annexin V / 7-AAD). The following applies: 10 μg/ml rabbit IgG or antibodies, 100 nM octreotide, % of Total. This is another data set of the same source.

Consider `C[C@@H](O)[C@@H]1NC(=O)[C@H](CCCCN)NC(=O)[C@@H](Cc2c[nH]c3ccccc23)NC(=O)[C@H](Cc2ccccc2)NC(=O)[C@@H](NC(=O)[C@H](N)Cc2ccccc2)CSSC[C@@H](C(=O)N[C@H](CO)[C@@H](C)O)NC1=O` [octreotide], for which, in assay [1], the “growth doubling time under octreotide compared to BON cells” value was “did not change”. Besides, the “7-AAD+” value in the assay with BON cells [2] (24 hours after treatment) stood at 1.1%; in the assay with BON cells [2] (48 hours after treatment) it was 10.9%; with BON cells [2] (72 hours after treatment), 19.8%. For the same molecule, the “Annexin V+” value was 4.3% in the assay on BON cells [2] (24 hours after treatment), 13.7% with BON cells [2] (48 hours after treatment) and 26.9% in the assay with BON cells [2] (72 hours after treatment). The “Early apoptotic cells (Lower Right Quadrant)” value was determined as 3.3% in the assay on BON cells [2] (24 hours after treatment), 3.8% in the assay on BON cells [2] (48 hours after treatment) and 7.7% with BON cells [2] (72 hours after treatment). Also, the “Late apoptotic cells (Upper Right Quadrant)” value in the assay on BON cells [2] (24 hours after treatment) is reported as 1.0%; in the assay on BON cells [2] (72 hours after treatment) it was 19.2%; with BON cells [5] (48 hours after treatment), 10.0%. For the same molecule, the entries for the “Nuclear Debris (Upper Left Quadrant)” value in the assay with BON cells [2] (24 hours after treatment), in the assay with BON cells [2] (48 hours after treatment) and in the assay with BON cells [2] (72 hours after treatment) were 0.1%, 1.0% and 0.6%, respectively. Moreover, the “cell population in G0/G1” value in the assay on BON cells [3] is recorded as ~75%. Also, in the assay with QGP cells, the QGP growth suppression entry is given as “sensitive”. In the assay with BON cells [4], the number of cells is reported as 7 million cells. The “Live, healthy cells (Lower Left Quadrant)” value in the assay with BON cells [5] (24 hours after treatment) is reported as 95.7%; in the assay with BON cells [5] (48 hours after treatment), 85.4%; with BON cells [5] (72 hours after treatment), 72.5%.
